Like-named read-outs stand apart in the source and are kept apart here.
What was measured:
[1] = target: T1, EGFR L858R/T790M/C797S (BaF3-LTC cells) (Homo sapiens, UniProt P00533, C797S/L858R/T790M); experiment: EGFR degradation HTRF assay, BaF3-LTC cells; format: cell-based
T1 construct: expressed in transfected cells; host or cells: BaF3
Procedure, shortened: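 EGFR remaining after a 16 h, 37 °C exposure (8 doses, 5-fold steps from 10 uM final, 0.2% DMSO) was quantified by HTRF antibodies in cell lysate. Percent inhibition relative to DMSO control was fitted by four-parameter logistic to give DC50; Dmax denotes maximal degradation.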

[2] = system: EGFR Del19/T790M/C797S (H1975-clone #28); experiment: EGFR degradation HTRF assay, H1975-clone #28 DTC cells; format: cell-based
Procedure, shortened: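 The test uses H1975 clonal lines carrying lentiviral mutant EGFR with endogenous copies removed, treated 16h at 37° C., 5% CO2. EGFR left in the lysate is quantified by HTRF, and DC50 is derived from an 8-dose curve starting at 10 uM final.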

[3] = H1975 # 28 DTC cells; maximum percentage of inhibition (degradation)
[4] = BaF3-LTC cells; EGFR degradation, IC50 (DC50) from curve fit; read-out: DC50(nM) BaF3-LTC
[5] = BaF3-LTC cells; maximum percentage of inhibition (degradation); read-out: Dmax (%) BaF3-LTC
[6] = H1975 # 28 DTC cells; EGFR degradation, IC50 (DC50) from curve fit; read-out: DC50(nM) H1975 # 28 DTC

T1 sequence (P00533 25-1210 T790M/C797S/L858R): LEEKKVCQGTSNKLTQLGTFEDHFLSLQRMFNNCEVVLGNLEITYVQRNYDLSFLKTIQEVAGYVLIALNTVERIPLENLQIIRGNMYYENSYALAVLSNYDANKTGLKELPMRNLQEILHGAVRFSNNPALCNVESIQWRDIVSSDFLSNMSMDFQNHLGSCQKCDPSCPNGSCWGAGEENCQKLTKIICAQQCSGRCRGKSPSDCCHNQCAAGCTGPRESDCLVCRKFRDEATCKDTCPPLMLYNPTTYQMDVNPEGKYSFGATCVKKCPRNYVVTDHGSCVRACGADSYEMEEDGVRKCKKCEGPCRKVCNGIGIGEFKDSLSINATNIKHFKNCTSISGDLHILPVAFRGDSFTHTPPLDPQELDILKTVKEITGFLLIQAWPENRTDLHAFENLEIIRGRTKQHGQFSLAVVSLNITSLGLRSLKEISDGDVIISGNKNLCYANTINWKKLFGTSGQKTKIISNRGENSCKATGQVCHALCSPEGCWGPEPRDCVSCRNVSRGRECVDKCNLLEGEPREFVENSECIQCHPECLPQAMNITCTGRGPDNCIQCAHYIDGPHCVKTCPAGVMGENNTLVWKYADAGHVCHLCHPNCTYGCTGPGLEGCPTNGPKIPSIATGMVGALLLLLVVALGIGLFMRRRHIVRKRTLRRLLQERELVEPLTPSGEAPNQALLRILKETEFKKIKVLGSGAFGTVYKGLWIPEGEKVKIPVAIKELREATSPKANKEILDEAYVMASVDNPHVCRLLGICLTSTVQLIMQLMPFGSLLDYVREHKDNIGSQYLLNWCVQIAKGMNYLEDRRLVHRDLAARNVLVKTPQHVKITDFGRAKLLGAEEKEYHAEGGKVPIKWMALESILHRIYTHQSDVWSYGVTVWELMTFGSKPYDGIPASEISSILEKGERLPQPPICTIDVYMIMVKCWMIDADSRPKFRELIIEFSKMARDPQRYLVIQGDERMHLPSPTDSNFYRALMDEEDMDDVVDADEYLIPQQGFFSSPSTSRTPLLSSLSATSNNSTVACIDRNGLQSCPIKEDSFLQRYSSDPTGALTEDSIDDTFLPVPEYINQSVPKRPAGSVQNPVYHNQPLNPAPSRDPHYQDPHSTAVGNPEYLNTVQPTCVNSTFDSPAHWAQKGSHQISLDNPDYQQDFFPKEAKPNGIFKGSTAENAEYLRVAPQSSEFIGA

DC50 [1, 4] [nM] | Dmax [1, 5] [%] | DC50 [2, 6] [nM] | Compound | DC50 ([1]; read-out: DC50(nM) BaF3-LTC; BaF3-LTC cells; EGFR degradation, IC50 (DC50) from curve fit) [nM] | Dmax ([1]; read-out: Dmax (%) BaF3-LTC, BaF3-LTC cells; maximum percentage of inhibition (degradation)) [%] | Dmax (%) H1975 # 28 DTC [2, 3] [%] | DC50 ([2]; read-out: DC50(nM) H1975 # 28 DTC; H1975 # 28 DTC cells; EGFR degradation, IC50 (DC50) from curve fit) [nM]
 |  |  | CCc1cc(Nc2ncc(Br)c(Nc3ccc4nc(C)ccc4c3P(C)(C)=O)n2)c(OC)cc1N1CCC(N2CCN(C(=O)C3CN(c4cccc5c4oc(=O)n5C4CCC(=O)NC4=O)C3)CC2)CC1 (stereo not shown) [Example 519, 3-(7-(3-(4-(1-(4-((5-bromo-4-((5-(dimethylphosphoryl)-2-methylquinolin-6-yl)amino)pyrimidin-2-yl)amino)-2-ethyl-5-methoxyphenyl)piperidin-4-yl)piperazine-1-carbonyl)azetidin-1-yl)-2-oxobenzo[d]oxazol-3(2H)-yl)piperidine-2,6-dione] | 1.19 | 92.1 | 74.38 | 0.378
5.66 | 90.1 | 0.769 | CCc1cc(Nc2ncc(Br)c(Nc3ccc4c(=O)n(C)ncc4c3P(C)(C)=O)n2)c(OC)cc1N1CCC(N2CCN(C(=O)C3CN(c4cc(F)c(C5CCC(=O)NC5=O)c(F)c4)C3)CC2)CC1 (stereo not shown) [Example 520, 3-(4-(3-(4-(1-(4-((5-bromo-4-((5-(dimethylphosphoryl)-2-methyl-1-oxo-1,2-dihydrophthalazin-6-yl)amino)pyrimidin-2-yl)amino)-2-ethyl-5-methoxyphenyl)piperidin-4-yl)piperazine-1-carbonyl)azetidin-1-yl)-2,6-difluorophenyl)piperidine-2,6-dione] |  |  | 73.99 | 
1.43 | 95.3 | 0.611 | CCc1cc(Nc2ncc(Br)c(Nc3ccc4c(=O)n(C5CC5)ncc4c3P(C)(C)=O)n2)c(OC)cc1N1CCC(N2CCN(CCc3ccc4c(c3)oc(=O)n4C3CCC(=O)NC3=O)CC2)CC1 (stereo not shown) [Example 522, 3-(6-(2-(4-(1-(4-((5-bromo-4-((2-cyclopropyl-5-(dimethylphosphoryl)-1-oxo-1,2-dihydrophthalazin-6-yl)amino)pyrimidin-2-yl)amino)-2-ethyl-5-methoxyphenyl)piperidin-4-yl)piperazin-1-yl)ethyl)-2-oxobenzo[d]oxazol-3(2H)-yl)piperidine-2,6-dione] |  |  | 75.25 | 
1.97 | 95.9 | 0.571 | CCc1cc(Nc2ncc(Br)c(Nc3ccc4c(=O)n(C)ncc4c3P(C)(C)=O)n2)c(OC)cc1N1CCC(N2CCN(CCc3ccc4c(c3)oc(=O)n4C3CCC(=O)NC3=O)CC2)CC1 (stereo not shown) [Example 523, 3-(6-(2-(4-(1-(4-((5-bromo-4-((5-(dimethylphosphoryl)-2-methyl-1-oxo-1,2-dihydrophthalazin-6-yl)amino)pyrimidin-2-yl)amino)-2-ethyl-5-methoxyphenyl)piperidin-4-yl)piperazin-1-yl)ethyl)-2-oxobenzo[d]oxazol-3(2H)-yl)piperidine-2,6-dione] |  |  | 72.16 | 
2.6 | 94.3 | 0.691 | CCc1cc(Nc2ncc(Br)c(Nc3ccc4nc(C)ccc4c3P(C)(C)=O)n2)c(OC)cc1N1CCC(N2CCN(C[C@H]3CCN(c4ccc5c(c4)oc(=O)n5C4CCC(=O)NC4=O)C3)CC2)CC1 (stereo partly drawn) [Example 525, 3-(6-((R)-3-((4-(1-(4-((5-bromo-4-((5-(dimethylphosphoryl)-2-methylquinolin-6-yl)amino)pyrimidin-2-yl)amino)-2-ethyl-5-methoxyphenyl)piperidin-4-yl)piperazin-1-yl)methyl)pyrrolidin-1-yl)-2-oxobenzo[d]oxazol-3(2H)-yl)piperidine-2,6-dione] |  |  | 50.86 | 
1.77 | 93.4 | 0.583 | COc1cc(N2CCC(N3CCN(C(=O)[C@@H]4CCN(c5cc(F)c([C@H]6CCC(=O)NC6=O)c(F)c5)C4)CC3)CC2)c(C)cc1Nc1ncc(Br)c(Nc2ccc3c(=O)n(C)ncc3c2P(C)(C)=O)n1 [Example 527, (R)-3-(4-((R)-3-(4-(1-(4-((5-bromo-4-((5-(dimethylphosphoryl)-2-methyl-1-oxo-1,2-dihydrophthalazin-6-yl)amino)pyrimidin-2-yl)amino)-5-methoxy-2-methylphenyl)piperidin-4-yl)piperazine-1-carbonyl)pyrrolidin-1-yl)-2,6-difluorophenyl)piperidine-2,6-dione] |  |  | 85.27 | 
5.8 | 91.9 | 1.03 | CCOc1cc(N2CCC(N3CCN(C(=O)[C@@H]4CCN(c5cc(F)c([C@H]6CCC(=O)NC6=O)c(F)c5)C4)CC3)CC2)c(C)cc1Nc1ncc(Br)c(Nc2ccc3c(=O)n(C)ncc3c2P(C)(C)=O)n1 [Example 529, (R)-3-(4-((R)-3-(4-(1-(4-((5-bromo-4-((5-(dimethylphosphoryl)-2-methyl-1-oxo-1,2-dihydrophthalazin-6-yl)amino)pyrimidin-2-yl)amino)-5-ethoxy-2-methylphenyl)piperidin-4-yl)piperazine-1-carbonyl)pyrrolidin-1-yl)-2,6-difluorophenyl)piperidine-2,6-dione] |  |  | 85.06 | 
5.05 | 94.6 | 1.87 | CCOc1cc(N2CCC(N3CCN(C(=O)[C@@H]4CCN(c5cc(F)c([C@H]6CCC(=O)NC6=O)c(F)c5)C4)CC3)CC2)c(CC)cc1Nc1ncc(Br)c(Nc2ccc3c(=O)n(C)ncc3c2P(C)(C)=O)n1 [Example 530, (R)-3-(4-((R)-3-(4-(1-(4-((5-bromo-4-((5-(dimethylphosphoryl)-2-methyl-1-oxo-1,2-dihydrophthalazin-6-yl)amino)pyrimidin-2-yl)amino)-5-ethoxy-2-ethylphenyl)piperidin-4-yl)piperazine-1-carbonyl)pyrrolidin-1-yl)-2,6-difluorophenyl)piperidine-2,6-dione] |  |  | 82.54 | 
9.87 | 93.8 | 1.13 | CCOc1cc(N2CCC(N3CCN(CC4CN(c5cc(F)c(C6CCC(=O)NC6=O)c(F)c5)C4)CC3)CC2)c(CC)cc1Nc1ncc(Br)c(Nc2ccc3c(=O)n(C)ncc3c2P(C)(C)=O)n1 (stereo not shown) [Example 535, 3-(4-(3-((4-(1-(4-((5-bromo-4-((5-(dimethylphosphoryl)-2-methyl-1-oxo-1,2-dihydrophthalazin-6-yl)amino)pyrimidin-2-yl)amino)-5-ethoxy-2-ethylphenyl)piperidin-4-yl)piperazin-1-yl)methyl)azetidin-1-yl)-2,6-difluorophenyl)piperidine-2,6-dione] |  |  | 82.79 | 
0.867 | 96.3 | 0.582 | CCc1cc(Nc2ncc(Br)c(Nc3cc(F)c4nc(C)ccc4c3P(C)(C)=O)n2)c(OC)cc1N1CCC(N2CCN(CCc3ccc4c(c3)oc(=O)n4C3CCC(=O)NC3=O)CC2)CC1 (stereo not shown) [Example 536, 3-(6-(2-(4-(1-(4-((5-bromo-4-((5-(dimethylphosphoryl)-8-fluoro-2-methylquinolin-6-yl)amino)pyrimidin-2-yl)amino)-2-ethyl-5-methoxyphenyl)piperidin-4-yl)piperazin-1-yl)ethyl)-2-oxobenzo[d]oxazol-3(2H)-yl)piperidine-2,6-dione] |  |  | 73.22 | 
0.934 | 94 | 0.223 | CCc1cc(Nc2ncc(Br)c(Nc3ccc4nc(C)ccc4c3P(C)(C)=O)n2)c(OC)cc1N1CCC(N2CCN(CC3CN(c4ccc5c(c4)oc(=O)n5C4CCC(=O)NC4=O)C3)CC2)CC1 (stereo not shown) [Example 537, 3-(6-(3-((4-(1-(4-((5-bromo-4-((5-(dimethylphosphoryl)-2-methylquinolin-6-yl)amino)pyrimidin-2-yl)amino)-2-ethyl-5-methoxyphenyl)piperidin-4-yl)piperazin-1-yl)methyl)azetidin-1-yl)-2-oxobenzo[d]oxazol-3(2H)-yl)piperidine-2,6-dione] |  |  | 65.01 | 
16.2 | 89.6 | 2.39 | CCc1cnc2c(P(C)(C)=O)c(Nc3nc(Nc4cc(CC)c(N5CCC(N6CCN(C(=O)[C@@H]7CCN(c8cc(F)c([C@H]9CCC(=O)NC9=O)c(F)c8)C7)CC6)CC5)cc4OC)ncc3Br)ccc2n1 [Example 538, (R)-3-(4-((R)-3-(4-(1-(4-((5-bromo-4-((5-(dimethylphosphoryl)-2-ethylquinoxalin-6-yl)amino)pyrimidin-2-yl)amino)-2-ethyl-5-methoxyphenyl)piperidin-4-yl)piperazine-1-carbonyl)pyrrolidin-1-yl)-2,6-difluorophenyl)piperidine-2,6-dione] |  |  | 80.57 | 
6.44 | 94.1 | 1.09 | CCc1ccc2c(P(C)(C)=O)c(Nc3nc(Nc4cc(C)c(N5CCC(N6CCN(C(=O)[C@@H]7CCN(c8cc(F)c([C@H]9CCC(=O)NC9=O)c(F)c8)C7)CC6)CC5)cc4OC)ncc3Br)ccc2n1 [Example 539, (R)-3-(4-((R)-3-(4-(1-(4-((5-bromo-4-((5-(dimethylphosphoryl)-2-ethylquinolin-6-yl)amino)pyrimidin-2-yl)amino)-5-methoxy-2-methylphenyl)piperidin-4-yl)piperazine-1-carbonyl)pyrrolidin-1-yl)-2,6-difluorophenyl)piperidine-2,6-dione] |  |  | 84.42 | 
